Measured values: US8883841B2, “Oncogenic ras-specific cytotoxic compound and methods of use thereof” (The Board of Regents of the University of Texas System, priority 2005, dated 2014)
pIC50: −log10 of the molar value. Read-outs that look alike come from different tables or passages of the source.

Assays:
[1] = system: BT-549; assay: NCI in-vitro testing, BT-549 (Breast Cancer)
[2] = system: CAKI-1; assay: NCI in-vitro testing, CAKI-1 (Renal Cancer); settings: for Percent Growth: CAK1-1
[3] = system: MDA-MB-231/ATCC; assay: NCI in-vitro testing, MDA-MB-231/ATCC (Breast Cancer)
[4] = system: MCF7; assay: NCI in-vitro testing, MCF7 (Breast Cancer)
[5] = system: HOP-92; assay: NCI in-vitro testing, HOP-92 (Non-Small Cell Lung Cancer)
[6] = system: SNB-75; assay: NCI in-vitro testing, SNB-75 (CNS Cancer)
[7] = system: UO-31; assay: NCI in-vitro testing, UO-31 (Renal Cancer)
[8] = system: MDA-MB-435; assay: NCI in-vitro testing, MDA-MB-435 (Breast Cancer)
[9] = system: SK-MEL-5; assay: NCI in-vitro testing, SK-MEL-5 (Melanoma)
[10] = system: HL-60(TB); assay: NCI in-vitro testing, HL-60(TB) (Leukemia)
[11] = system: SKOV3; assay: Cell viability, SKOV3 ovary cancer cells; type: cell-based; settings: Homo sapiens, SK-OV-3

OCc1cn(Cc2ccc(Cl)cc2)c2ccccc12 [Oncrasin K060, 1H-Indole-3-methanol, 1-[(4-chlorophenyl)methyl]-]
TGI ([1]; BT-549): 1.73E−5 Molar | Percent Growth ([1]; BT-549, Log10 Concentration −4.0 Molar): −85% | Percent Growth ([1]; BT-549, Log10 Concentration −5.0 Molar): 26% | Percent Growth ([1]; BT-549, Log10 Concentration −6.0 Molar): 97% | Percent Growth ([1]; BT-549, Log10 Concentration −7.0 Molar): 118% | Percent Growth ([1]; BT-549, Log10 Concentration −8.0 Molar): 110% | GI50 ([1]; Homo sapiens, BT-549): 4.62 µM | CC50 ([1]; Homo sapiens, BT-549, read-out: LC50): 4.88 µM | GI50 ([1]; Homo sapiens, BT-549, read-out: Log10 GI50 (converted)): 4.57 µM | Percent Growth ([2]; Log10 Concentration −4.0 Molar): 1% | Percent Growth ([2]; Log10 Concentration −5.0 Molar): −47% | Percent Growth ([2]; Log10 Concentration −6.0 Molar): −21% | Percent Growth ([2]; Log10 Concentration −7.0 Molar): −3% | Percent Growth ([2]; Log10 Concentration −8.0 Molar): 1% | GI50 ([2]; Homo sapiens, CAKI-1): < 0.01 µM | CC50 ([2]; Homo sapiens, CAKI-1, read-out: LC50): > 100 µM | GI50 ([2]; Homo sapiens, CAKI-1, read-out: Log10 GI50 (converted)): < 0.01 µM | GI50 ([3]; Homo sapiens, MDA-MB-231): 11 µM | CC50 ([3]; Homo sapiens, MDA-MB-231, read-out: LC50): > 100 µM | GI50 ([3]; Homo sapiens, MDA-MB-231, read-out: Log10 GI50 (converted)): 11 µM | TGI ([3]; MDA-MB-231/ATCC): 4.23E−5 Molar | Percent Growth ([3]; MDA-MB-231/ATCC, Log10 Concentration −4.0 Molar): −32% | Percent Growth ([3]; MDA-MB-231/ATCC, Log10 Concentration −5.0 Molar): 53% | Percent Growth ([3]; MDA-MB-231/ATCC, Log10 Concentration −6.0 Molar): 109% | Percent Growth ([3]; MDA-MB-231/ATCC, Log10 Concentration −7.0 Molar): 120% | Percent Growth ([3]; MDA-MB-231/ATCC, Log10 Concentration −8.0 Molar): 105% | GI50 ([4]; Homo sapiens, MCF7): 0.0573 µM | CC50 ([4]; Homo sapiens, MCF7, read-out: LC50): > 100 µM | GI50 ([4]; Homo sapiens, MCF7, read-out: Log10 GI50 (converted)): 0.0676 µM | TGI ([4]; MCF7): 2.75E−5 Molar | Percent Growth ([4]; MCF7, Log10 Concentration −4.0 Molar): −10% | Percent Growth ([4]; MCF7, Log10 Concentration −5.0 Molar): 8% | Percent Growth ([4]; MCF7, Log10 Concentration −6.0 Molar): 10% | Percent Growth ([4]; MCF7, Log10 Concentration −7.0 Molar): 45% | Percent Growth ([4]; MCF7, Log10 Concentration −8.0 Molar): 75% | TGI ([5]; HOP-92): 2.39E−5 Molar | Percent Growth ([5]; HOP-92, Log10 Concentration −4.0 Molar): −60% | Percent Growth ([5]; HOP-92, Log10 Concentration −5.0 Molar): 34% | Percent Growth ([5]; HOP-92, Log10 Concentration −6.0 Molar): 88% | Percent Growth ([5]; HOP-92, Log10 Concentration −7.0 Molar): 81% | Percent Growth ([5]; HOP-92, Log10 Concentration −8.0 Molar): 97% | GI50 ([5]; Homo sapiens, HOP-92): 5.17 µM | CC50 ([5]; Homo sapiens, HOP-92, read-out: LC50): 77.6 µM | GI50 ([5]; Homo sapiens, HOP-92, read-out: Log10 GI50 (converted)): 5.13 µM | GI50 ([6]; Homo sapiens, SNB-75): 76.4 µM | CC50 ([6]; Homo sapiens, SNB-75, read-out: LC50): 62.8 µM | GI50 ([6]; Homo sapiens, SNB-75, read-out: Log10 GI50 (converted)): 7.59 µM | TGI ([6]; SNB-75): 2.31E−5 Molar | Percent Growth ([6]; SNB-75, Log10 Concentration −4.0 Molar): −73% | Percent Growth ([6]; SNB-75, Log10 Concentration −5.0 Molar): 42% | Percent Growth ([6]; SNB-75, Log10 Concentration −6.0 Molar): 112% | Percent Growth ([6]; SNB-75, Log10 Concentration −7.0 Molar): 119% | Percent Growth ([6]; SNB-75, Log10 Concentration −8.0 Molar): 118% | GI50 ([7]; Homo sapiens, UO-31): 1.58 µM | CC50 ([7]; Homo sapiens, UO-31, read-out: LC50): > 100 µM | GI50 ([7]; Homo sapiens, UO-31, read-out: Log10 GI50 (converted)): 1.58 µM | TGI ([7]; UO-31): 1.55E−5 Molar | Percent Growth ([7]; UO-31, Log10 Concentration −4.0 Molar): −42% | Percent Growth ([7]; UO-31, Log10 Concentration −5.0 Molar): 10% | Percent Growth ([7]; UO-31, Log10 Concentration −6.0 Molar): 60% | Percent Growth ([7]; UO-31, Log10 Concentration −7.0 Molar): 80% | Percent Growth ([7]; UO-31, Log10 Concentration −8.0 Molar): 90% | GI50 ([8]; Homo sapiens, MDA-MB-435): 19.3 µM | CC50 ([8]; Homo sapiens, MDA-MB-435, read-out: LC50): > 100 µM | GI50 ([8]; Homo sapiens, MDA-MB-435, read-out: Log10 GI50 (converted)): 19.1 µM | TGI ([8]; MDA-MB-435): 5.47E−5 Molar | Percent Growth ([8]; MDA-MB-435, Log10 Concentration −4.0 Molar): −29% | Percent Growth ([8]; MDA-MB-435, Log10 Concentration −5.0 Molar): 81% | Percent Growth ([8]; MDA-MB-435, Log10 Concentration −6.0 Molar): 96% | Percent Growth ([8]; MDA-MB-435, Log10 Concentration −7.0 Molar): 100% | Percent Growth ([8]; MDA-MB-435, Log10 Concentration −8.0 Molar): 102% | GI50 ([9]; Homo sapiens, SK-MEL-5): 4.97 µM | CC50 ([9]; Homo sapiens, SK-MEL-5, read-out: LC50): 45.5 µM | GI50 ([9]; Homo sapiens, SK-MEL-5, read-out: Log10 GI50 (converted)): 5.01 µM | TGI ([9]; SK-MEL-5): 1.95E−5 Molar | Percent Growth ([9]; SK-MEL-5, Log10 Concentration −4.0 Molar): −97% | Percent Growth ([9]; SK-MEL-5, Log10 Concentration −5.0 Molar): 40% | Percent Growth ([9]; SK-MEL-5, Log10 Concentration −6.0 Molar): 74% | Percent Growth ([9]; SK-MEL-5, Log10 Concentration −7.0 Molar): 92% | Percent Growth ([9]; SK-MEL-5, Log10 Concentration −8.0 Molar): 95% | TGI ([10]; HL-60(TB)): 1.28E−5 Molar | Percent Growth ([10]; HL-60(TB), Log10 Concentration −4.0 Molar): −78% | Percent Growth ([10]; HL-60(TB), Log10 Concentration −5.0 Molar): 9% | Percent Growth ([10]; HL-60(TB), Log10 Concentration −6.0 Molar): 89% | Percent Growth ([10]; HL-60(TB), Log10 Concentration −7.0 Molar): 85% | Percent Growth ([10]; HL-60(TB), Log10 Concentration −8.0 Molar): 95% | GI50 ([10]; Homo sapiens, HL-60): 2.1 µM | CC50 ([10]; Homo sapiens, HL-60, read-out: LC50): 4.31 µM | GI50 ([10]; Homo sapiens, HL-60, read-out: Log10 GI50 (converted)): 2.09 µM | pIC50 [11]: 6.20
